The text below walks through data of PubChem BioAssay (NCI).

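A five-concentration, 48-hour dose response in 96-well plates underlies each endpoint, interpolated linearly between surrounding concentrations. GI50 marks 50% less growth. TGI is the concentration that stops growth completely.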 Where only a bound is given, the exact number is not on record here.

What all share (experiment): NCI-60 cell line screen, 48 h
Experiment [1] concerns SK-MEL-5 melanoma.
In experiment [2] the test system is OVCAR-3 ovarian.
The subject of experiment [3] is RPMI-8226 leukemia.
For experiment [4], the system named is RXF 393 renal.
Experiment [5] deals with CAKI-1 renal.
In experiment [6] the test system is SK-MEL-2 melanoma.
The subject of experiment [7] is SF-268 CNS.
Experiment [8] deals with HCC-2998 colon.
Experiment [9] has as its system UACC-257 melanoma.
Experiment [10] relates to HCT-116 colon.

On to `CN1CCN(Cc2ccc3c(NNC(=O)c4ccccc4)nc4cc(F)ccc4n23)CC1`, for which the GI50 in experiment [1] is 0.577 µM; in experiment [2], 0.337 µM; in experiment [3], 0.574 µM; in [4], 0.683 µM; in experiment [5], 0.248 µM; in experiment [6], 2.41 µM. Moreover, the GI50 was 0.454 µM in experiment [7], 0.526 µM in experiment [8], 0.848 µM in [9] and 0.316 µM in [10]. Also, the TGI was 3.28 µM in experiment [1]; 40.1 µM in [2]; 18.1 µM in experiment [3]; 21.3 µM in [4]; 14.4 µM in experiment [5]; > 70.6 µM in [6]. Further, the TGI in experiment [7] is > 100 µM; in [8] it was 49.6 µM; in experiment [9] it was 12.5 µM; in experiment [10], 16 µM.
In the case of `O=C1c2ccccc2C(=O)c2sc(Nc3ccccc3Cl)nc21`, the TGI in experiment [1] turned out to be 16.4 µM; in experiment [2] it was 25.8 µM; in experiment [3], 10.6 µM; in experiment [4], 30 µM; in experiment [5], 18.4 µM; in experiment [6] it was 34.5 µM. Also, the TGI in [7] came to 23.7 µM; in experiment [8], 34.9 µM; in [9] it was 21.4 µM; in experiment [10], 22.9 µM.
With `O=C(c1ccccc1)n1c(-c2ccccc2)cs/c1=N\S(=O)(=O)c1ccc(N2N=C3c4ccccc4CC3C2c2cccs2)cc1` (configuration not stated), the GI50 in experiment [1] was 24.4 µM; in experiment [2] it was 55.2 µM; in experiment [3] it was 32.3 µM; in experiment [4], 37.1 µM; in [5], 38 µM; in [6], > 100 µM. In addition, the GI50 in experiment [7] was > 100 µM; in [8] it was 14 µM; in experiment [9], 45.7 µM; in [10], 30.5 µM. The TGI in experiment [1], in [2], in [3], in experiment [4], in [5] and in experiment [6] was > 100 µM each time. Besides, the TGI was > 100 µM in experiment [7], 32.6 µM in experiment [8], > 100 µM in [9] and > 100 µM in experiment [10].
For the compound `O=S(=O)(Nc1ccc(F)c(Cl)c1)c1ccc(-c2cnc(C3CC3)o2)cc1`, the GI50 in [1] is 0.316 µM; in [2], 0.154 µM; in experiment [3], 0.388 µM; in experiment [4] it was 0.196 µM; in experiment [5] it was 0.179 µM; in experiment [6], 0.657 µM. Besides, the GI50 in experiment [7] was 1.24 µM; in experiment [8], 1.13 µM; in [9], 1.12 µM; in [10] it was 0.334 µM. The TGI is 1.67 µM in experiment [1]; 4.01 µM in [2]; > 31.9 µM in [3]; 1.28 µM in [4]; 11.7 µM in experiment [5]; 14 µM in [6]. The TGI in experiment [7] was found to be 11.3 µM; in [8] it was 7.9 µM; in [9] it was 10.1 µM; in experiment [10], 10.4 µM.
Take `Nc1nc(N)c2cc(Sc3cccc(C(F)(F)F)c3)ccc2n1`: the TGI in [1] is 5.86 µM; in [2] it was 13.6 µM; in experiment [3] it was 5.43 µM; in [4], 2.53 µM; in experiment [5], 16.7 µM; in experiment [6], 5.25 µM. The TGI in experiment [7] turned out to be 19 µM; in [8], 2.83 µM; in experiment [9], 3.36 µM; in [10], 1.33 µM. Moreover, the GI50 in experiment [4] was 1.01 µM; in experiment [9], 1.27 µM.
`N#CN1CC[C@H](C(=O)Nc2cc3cc(C(N)=O)ccc3cn2)C1`: the GI50 was 0.105 µM in experiment [1]; < 0.0186 µM in [2]; 0.272 µM in experiment [3]; 0.0426 µM in experiment [4]; 0.487 µM in experiment [5]; 0.0266 µM in experiment [6]. The GI50 in experiment [7] is 0.0732 µM; in experiment [8], 0.144 µM; in experiment [9], 0.22 µM; in [10], 0.104 µM. The TGI in [1] was 2.21 µM; in experiment [2], 0.206 µM; in experiment [3], 1.46 µM; in [4], 0.21 µM; in experiment [5], > 100 µM; in experiment [6], 0.107 µM. Moreover, the TGI was found to be 24.3 µM in [7], 10.8 µM in [8], 0.904 µM in experiment [9] and 15.3 µM in experiment [10].
Turning to `NC(=S)N=Nc1c(O)c2ccccc2c2ccccc12`, the GI50 in experiment [1] was 1.41 µM; in [2], 3.02 µM; in experiment [3] it was 9.73 µM; in experiment [4], 18.7 µM; in experiment [5], 37.9 µM; in [6], 14.9 µM. Further, the GI50 in experiment [7] is 10.2 µM; in experiment [8], 36.3 µM; in [9], 1.72 µM; in [10] it was 4.35 µM. Further, the TGI in [1] is 2.9 µM; in experiment [2], 10.2 µM; in experiment [3], > 100 µM; in experiment [4], 44.7 µM; in experiment [5], > 100 µM; in experiment [6], 33.8 µM. The TGI in [7] was 35.7 µM; in experiment [8] it was > 100 µM; in experiment [9], 3.31 µM; in [10] it was 51.5 µM.
For `Nc1nc(=O)n([C@@H]2CS[C@H](CO)O2)cc1F`, the GI50 in experiment [1], in experiment [2], in experiment [3], in experiment [4], in [5] and in [6] was > 100 µM in each case. The GI50 in [7], in experiment [8], in experiment [9] and in experiment [10] was > 100 µM each time. The TGI in experiment [1], in [2], in [3], in experiment [4], in experiment [5] and in [6] was > 100 µM each time. The TGI in experiment [7], in [8], in [9] and in [10] was > 100 µM in each case.
Regarding `CCOC(=O)/C=C/C(=O)[C@H](CC(C)C)NC(=O)[C@H](Cc1ccccc1)NC(=O)OCc1ccccc1`, the GI50 in experiment [1] was 16.4 µM; in experiment [2], 3.19 µM; in experiment [3], 2.13 µM; in [4] it was 2.03 µM; in experiment [5] it was 8.82 µM; in [6] it was 13.8 µM. The GI50 in experiment [7] is 3.3 µM; in experiment [8], 15.6 µM; in experiment [9], 15 µM; in experiment [10] it was 2.87 µM. Also, the TGI in [1] was 31.1 µM; in [2], 10.4 µM; in experiment [3] it was 5.97 µM; in experiment [4], 3.64 µM; in experiment [5] it was 21.7 µM; in [6], 27.1 µM. The TGI stood at 13.3 µM in [7], 30.1 µM in experiment [8], 29.2 µM in experiment [9] and 9.43 µM in experiment [10].
Take `COc1ccc(C(CC(=O)c2ccccc2)C(C(=O)c2ccccc2)C(c2ccc(OC)cc2)C2C(=O)NC(=S)NC2=O)cc1` (configuration not stated): the GI50 is 10.5 µM in [1]; 4.96 µM in [2]; 25.6 µM in experiment [3]; 18.2 µM in [4]; 2.53 µM in experiment [5]; 13.8 µM in experiment [6]. Moreover, the GI50 in experiment [7] was 9.99 µM; in [8], 2.46 µM; in experiment [9] it was 13.8 µM; in experiment [10], 15.4 µM. Besides, the TGI in [1] is 22.7 µM; in experiment [2] it was 24.8 µM; in experiment [3], > 100 µM; in experiment [4], > 100 µM; in [5], 11.8 µM; in [6] it was 49 µM. The TGI in [7] was determined as 55.5 µM; in [8], 16.6 µM; in [9] it was 52.7 µM; in experiment [10] it was 37.4 µM.
For the compound `CC1=C[C@H]2C[C@H](C)[C@H]3CC[C@H](C)[C@]4(C1)C(=O)C(O)=C(C)C(=O)[C@@]324`, the GI50 in experiment [1] was 13.5 µM; in experiment [2] it was 20 µM; in [3], 13.1 µM; in experiment [4], 60.9 µM; in experiment [5], 24.9 µM; in [6], 32.3 µM. The GI50 is > 100 µM in experiment [7], 19.6 µM in experiment [8], 59.2 µM in experiment [9] and 19.5 µM in experiment [10]. Also, the TGI in experiment [1] was 30.8 µM; in experiment [2] it was 64.6 µM; in experiment [3], 32.4 µM; in [4], > 100 µM; in [5] it was 66.1 µM; in experiment [6] it was > 100 µM. Besides, the TGI was > 100 µM in experiment [7], 47.2 µM in [8], > 100 µM in experiment [9] and 41.8 µM in [10].
